From patent US20130324405A1, “NEW ANTIFUNGAL COMPOSITIONS” (DSM IP ASSETS B.V., priority 2011, published 2013)
“And” between values parts separate entries of the source, which are not always exact repeats. Equal values may be shown once.

Experiments:
Botrytis cinerea [1] = assay: In vitro antifungal activity, 96-well microtiter plates; format: cell-based; conditions: 0.63 ppm natamycin, 25 ppm cyazofamid, 50 ppm fenamidone, or natamycin plus one of these, 7 days at 25° C.
Method: Subsequently, 100 μl of a Botrytis cinerea suspension prepared in PCB medium was used to inoculated each well with 2.5×10^3spores/ml. […] The expected antifungal activity (E in %) of the active ingredient combination was calculated according to the Colby equation (Colby, 1967): […] wherein X and Y are the observed antifungal activities (in %) of the individual active ingredients X and Y, respectively.

Fusarium proliferatum [2] = assay: Treatment of wounded, inoculated bananas with antifungal compositions (mould growth); format: in vivo
Method: Four organic, unripe (green) bananas were used per treatment. The peel of each banana was wounded thrice using a cork borer according to the method described by de Lapeyre de Bellaire and Dubois (1987). Subsequently, each wound was inoculated with 15 μl of a Fusarium proliferatum suspension containing 1×10^5 of spores/ml. […] In addition, the antifungal compositions comprised 1.00% (w/w) methylhydroxyethylcellulose (MHEC), 0.40% (w/w) xanthan gum, 0.20% (w/w) anti-foaming agent, 0.30% (w/w) citric acid, 0.39% (w/w) lactic acid and 0.11% (w/w) potassium sorbate. The pH of the composition was 4.
The treated, unripe bananas were incubated in a closed box in the dark at 20° C. and a relative air humidity of 95%, which was obtained in the presence of a saturated Na2HPO4 aqueous solution. A ripe (yellow) banana was included in the closed box to elevate the ethylene gas level and thus induce ripening of the treated, unripe bananas.
The expected antifungal activity (E in %) of the combined antifungal composition comprising both active ingredients was calculated according to the Colby equation (Colby, 1967): […]
(§1) wherein X and Y are the observed antifungal activities (in %) of the individual active ingredients X and Y, respectively. If the observed antifungal activity (O in %) of the combination exceeds the expected antifungal activity (E in %) of the combination and the synergy factor O/E is thus >1.0, the combined application of the active ingredients leads to a synergistic antifungal effect.

Fusarium proliferatum [3] = assay: In vitro antifungal activity, 96-well microtiter plates; format: cell-based; conditions: 5 days at 25° C.
Method: Subsequently, 100 μl of a Botrytis cinerea suspension prepared in PCB medium was used to inoculated each well with 2.5×10^3spores/ml.
After incubation of the microtiter plates for 7 at 25° C., the in vitro antifungal activity (%) of the individual active ingredients was assessed by calculating the reduction in mould growth observed in the presence of the active ingredient in comparison to the mould growth observed in the absence of the active ingredient. The expected antifungal activity (E in %) of the active ingredient combination was calculated according to the Colby equation (Colby, 1967): […]
as §1, with “and the resulting synergy factor” for “and the synergy factor”
Furthermore, Fusarium proliferatum was used for inoculation.

Botrytis cinerea [4] = assay: Treatment of wounded, inoculated strawberries by dipping in antifungal compositions (mould growth); format: in vivo; conditions: for Observed antifungal activity O (%): strawberries
Method: Twelve fresh, organic strawberries were used per treatment. Each strawberry was wounded with a 0.5 mm long cut and each wound was inoculated with 10 μl of a Botrytis cinerea suspension containing 1×10^5 of spores/ml. […] The antifungal composition also comprised 1.00% (w/w) methylhydroxyethylcellulose (MHEC), 0.40% (w/w) xanthan gum, 0.20% (w/w) anti-foaming agent, 0.30% (w/w) citric acid, 0.39% (w/w) lactic acid and 0.11% (w/w) potassium sorbate. The pH of the composition was 4.
The treated strawberries were incubated in a closed box in the dark at 20° C. […]. […] The expected antifungal activity (E in %) of the combined antifungal composition comprising both active ingredients was calculated according to the Colby equation (Colby, 1967): […]
as §1
The treated strawberries were assessed on mould growth after 3, 4, 5, 7, 8 and 9 days of incubation according to the two methods described in Example 6.

[5] = 250 ppm natamycin, 500 ppm cyazofamid or both, 27 days at 20° C.
[6] = 500 ppm natamycin, 2000 ppm cyazofamid or both, 21 days at 20° C.
[7] = 500 ppm natamycin, 2000 ppm cyazofamid or both, 23 days at 20° C.
[8] = 500 ppm natamycin, 2000 ppm cyazofamid or both, 24 days at 20° C.
[9] = 2.5 ppm natamycin, 50 ppm cyazofamid or both
[10] = 50 ppm natamycin, 250 ppm fenamidone or both, Day 3 at 20° C.
[11] = 50 ppm natamycin, 250 ppm fenamidone or both, Day 4 at 20° C.
[12] = 50 ppm natamycin, 250 ppm fenamidone or both, Day 5 at 20° C.
[13] = 500 ppm natamycin, 1000 ppm fenamidone or both, Day 3 at 20° C.
[14] = 500 ppm natamycin, 1000 ppm fenamidone or both, Day 5 at 20° C.
[15] = 50 ppm natamycin, 250 ppm fenamidone or both, 3 days at 20° C.
[16] = 50 ppm natamycin, 250 ppm fenamidone or both, 4 days at 20° C.
[17] = 50 ppm natamycin, 250 ppm fenamidone or both, 5 days at 20° C.
[18] = 50 ppm natamycin, 250 ppm fenamidone or both, 7 days at 20° C.
[19] = 50 ppm natamycin, 250 ppm fenamidone or both, 8 days at 20° C.
[20] = 50 ppm natamycin, 250 ppm fenamidone or both, 9 days at 20° C.
[21] = 500 ppm natamycin, 1000 ppm fenamidone or both, 3 days at 20° C.
[22] = 500 ppm natamycin, 1000 ppm fenamidone or both, 4 days at 20° C.
[23] = 500 ppm natamycin, 1000 ppm fenamidone or both, 5 days at 20° C.
[24] = 500 ppm natamycin, 1000 ppm fenamidone or both, 7 days at 20° C.
[25] = 500 ppm natamycin, 1000 ppm fenamidone or both, 8 days at 20° C.
[26] = 500 ppm natamycin, 1000 ppm fenamidone or both, 9 days at 20° C.

Structure (SMILES)	Observed antifungal activity O (%) (Botrytis cinerea [1])	Observed antifungal activity O (%) (Fusarium proliferatum [2]; [5])	Observed antifungal activity O (%) (Fusarium proliferatum [2]; [6])	Observed antifungal activity O (%) (Fusarium proliferatum [2]; [7])	Observed antifungal activity O (%) (Fusarium proliferatum [2]; [8])	Observed antifungal activity O (%) (Fusarium proliferatum [3]; [9])	Number of moulded strawberries/total number of 12 strawberries (Botrytis cinerea [4]; [10])	Number of moulded strawberries/total number of 12 strawberries (Botrytis cinerea [4]; [11])	Number of moulded strawberries/total number of 12 strawberries (Botrytis cinerea [4]; [12])	Number of moulded strawberries/total number of 12 strawberries (Botrytis cinerea [4]; [13])	Number of moulded strawberries/total number of 12 strawberries (Botrytis cinerea [4]; [14])	Observed antifungal activity O (%) (Botrytis cinerea [4]; [15])	Observed antifungal activity O (%) (Botrytis cinerea [4]; [16])	Observed antifungal activity O (%) (Botrytis cinerea [4]; [17])	Observed antifungal activity O (%) (Botrytis cinerea [4]; [18])	Observed antifungal activity O (%) (Botrytis cinerea [4]; [19])	Observed antifungal activity O (%) (Botrytis cinerea [4]; [20])	Observed antifungal activity O (%) (Botrytis cinerea [4]; [21])	Observed antifungal activity O (%) (Botrytis cinerea [4]; [22])	Observed antifungal activity O (%) (Botrytis cinerea [4]; [23])	further results
Cc1ccc(-c2c(Cl)nc(C#N)n2S(=O)(=O)N(C)C)cc1 [Cyazofamid, cyazofamid]	0	1	0	0	0	0															Observed antifungal activity O (%) (Fusarium proliferatum [2]; 50 ppm natamycin, 250 ppm cyazofamid or both, 27 days at 20° C.): 0%; Observed antifungal activity O (%) (Fusarium proliferatum [3]; 75 ppm cyazofamid alone or with 2.5 ppm natamycin): 0%
CSC1=N[C@@](C)(c2ccccc2)C(=O)N1Nc1ccccc1 [Fenamidone, fenamidone]	0						12 and 12/12	12 and 12/12	12 and 12/12	12 and 12/12	12 and 12/12	0	0	0	0	0	0	9	0	0	Observed antifungal activity O (%) (Botrytis cinerea [4]; [24]): 0%; Observed antifungal activity O (%) (Botrytis cinerea [4]; [25]): 0%; Observed antifungal activity O (%) (Botrytis cinerea [4]; [26]): 0%
C[C@@H]1C/C=C/C=C/C=C/C=C/[C@H](O[C@@H]2O[C@H](C)[C@@H](O)[C@H](N)[C@@H]2O)C[C@@H]2O[C@](O)(C[C@@H](O)C[C@H]3O[C@@H]3/C=C/C(=O)O1)C[C@H](O)[C@H]2C(=O)O [Natamycin, natamycin]	0	4	94	86	84	0	3 and 3/12	5 and 5/12	10 and 10/12	3 and 3/12	11 and 11/12	64	50	17	17	10	0	75	69	31	Observed antifungal activity O (%) (Botrytis cinerea [4]; [24]): 13%; Observed antifungal activity O (%) (Botrytis cinerea [4]; [25]): 0%; Observed antifungal activity O (%) (Botrytis cinerea [4]; [26]): 0%
